In US9006450B2 (Boehringer Ingelheim International GmbH, priority 2010, dated 2015):

Target: T1, human ACC2 (Homo sapiens, UniProt O00763)
T1 construct: made in house; host or cells: insect cells (baculoviral expression system)
Assay: ACC2 assay, spectrophotometric 384 well assay (NADH-linked, coupled lactate dehydrogenase/pyruvate kinase)
Assay type: biochemical
Conditions: ACC2 assay, hACC2 construct lacking 128 N-terminal amino acids, 25° C., 340 nm; read-out: IC50
Protocol: Spectrophotometric 384 Well Assay
Malonyl CoA formation by acetyl CoA carboxylases is stoichometrically linked to the consumption of ATP. ACC2 activity is measured in a NADH-linked kinetic method measuring ADP generated during the ACC reaction using a coupled lactate dehydrogenase/pyruvate kinase reaction.
For biological testing, a human ACC2 construct which lacks the 128 amino acids at the N-terminus for increased solubility (nt 385-6966 in Genbank entry AJ575592) is cloned. The protein is then expressed in insect cells using a baculoviral expression system. Protein purification is performed by anion exchange.
All compounds are dissolved in dimethyl sulfoxide (DMSO) to a concentration of 10 mM.
Assay reactions are then carried out in 384-well plates, with hACC2 in an appropriate dilution and at final assay concentrations (f.c.) of 100 mM Tris (pH 7.5), 10 mM trisodium citrate, 25 mM KHCO3, 10 mM MgCl2, 0.5 mg/mL BSA, 3.75 mM reduced L-glutathione, 15 U/mL lactate dehydrogenase, 0.5 mM phosphoenolpyruvate, 15 U/mL pyruvate kinase, compounds at different concentrations at final DMSO concentrations of 1%.
The enzymatic reaction is then started by addition of a mixture of NADH, acetyl Coenzyme A (both 200 μM f.c.) and ATP (500 uM f.c.). The decrease of the optical density (slope S) is then determined at 25° C. at a wavelength of 340 nm over 15 minutes in a spectrophotometric reader.
Each assay microtiter plate contains wells with vehicle instead of compound as controls for the non-inhibited enzyme (100% CTL; ‘HIGH’) and wells without acetyl-CoA as controls for non-specific NADH degradation (0% CTL; ‘LOW’).
The slope S is used for calculation of % CTL=(S(compound)−S('LOW'))/(S('HIGH')−S('LOW'))*100. Compounds will give values between 100% CTL (no inhibition) and 0% CTL (complete inhibition).
For IC50 value determination, the sample slope in the presence of the test compound after subtraction of the low controls (S(compound)−S('LOW')) are used.
An IC50 value is derived from the compound slopes at different dosages after subtraction of the low controls (S(compound)−S('LOW')) by non-linear regression curve fitting (equation y=(A+((B−A)/(1+((C/x)^D))))).

T1 sequence (O00763 129-2458 limits assumed): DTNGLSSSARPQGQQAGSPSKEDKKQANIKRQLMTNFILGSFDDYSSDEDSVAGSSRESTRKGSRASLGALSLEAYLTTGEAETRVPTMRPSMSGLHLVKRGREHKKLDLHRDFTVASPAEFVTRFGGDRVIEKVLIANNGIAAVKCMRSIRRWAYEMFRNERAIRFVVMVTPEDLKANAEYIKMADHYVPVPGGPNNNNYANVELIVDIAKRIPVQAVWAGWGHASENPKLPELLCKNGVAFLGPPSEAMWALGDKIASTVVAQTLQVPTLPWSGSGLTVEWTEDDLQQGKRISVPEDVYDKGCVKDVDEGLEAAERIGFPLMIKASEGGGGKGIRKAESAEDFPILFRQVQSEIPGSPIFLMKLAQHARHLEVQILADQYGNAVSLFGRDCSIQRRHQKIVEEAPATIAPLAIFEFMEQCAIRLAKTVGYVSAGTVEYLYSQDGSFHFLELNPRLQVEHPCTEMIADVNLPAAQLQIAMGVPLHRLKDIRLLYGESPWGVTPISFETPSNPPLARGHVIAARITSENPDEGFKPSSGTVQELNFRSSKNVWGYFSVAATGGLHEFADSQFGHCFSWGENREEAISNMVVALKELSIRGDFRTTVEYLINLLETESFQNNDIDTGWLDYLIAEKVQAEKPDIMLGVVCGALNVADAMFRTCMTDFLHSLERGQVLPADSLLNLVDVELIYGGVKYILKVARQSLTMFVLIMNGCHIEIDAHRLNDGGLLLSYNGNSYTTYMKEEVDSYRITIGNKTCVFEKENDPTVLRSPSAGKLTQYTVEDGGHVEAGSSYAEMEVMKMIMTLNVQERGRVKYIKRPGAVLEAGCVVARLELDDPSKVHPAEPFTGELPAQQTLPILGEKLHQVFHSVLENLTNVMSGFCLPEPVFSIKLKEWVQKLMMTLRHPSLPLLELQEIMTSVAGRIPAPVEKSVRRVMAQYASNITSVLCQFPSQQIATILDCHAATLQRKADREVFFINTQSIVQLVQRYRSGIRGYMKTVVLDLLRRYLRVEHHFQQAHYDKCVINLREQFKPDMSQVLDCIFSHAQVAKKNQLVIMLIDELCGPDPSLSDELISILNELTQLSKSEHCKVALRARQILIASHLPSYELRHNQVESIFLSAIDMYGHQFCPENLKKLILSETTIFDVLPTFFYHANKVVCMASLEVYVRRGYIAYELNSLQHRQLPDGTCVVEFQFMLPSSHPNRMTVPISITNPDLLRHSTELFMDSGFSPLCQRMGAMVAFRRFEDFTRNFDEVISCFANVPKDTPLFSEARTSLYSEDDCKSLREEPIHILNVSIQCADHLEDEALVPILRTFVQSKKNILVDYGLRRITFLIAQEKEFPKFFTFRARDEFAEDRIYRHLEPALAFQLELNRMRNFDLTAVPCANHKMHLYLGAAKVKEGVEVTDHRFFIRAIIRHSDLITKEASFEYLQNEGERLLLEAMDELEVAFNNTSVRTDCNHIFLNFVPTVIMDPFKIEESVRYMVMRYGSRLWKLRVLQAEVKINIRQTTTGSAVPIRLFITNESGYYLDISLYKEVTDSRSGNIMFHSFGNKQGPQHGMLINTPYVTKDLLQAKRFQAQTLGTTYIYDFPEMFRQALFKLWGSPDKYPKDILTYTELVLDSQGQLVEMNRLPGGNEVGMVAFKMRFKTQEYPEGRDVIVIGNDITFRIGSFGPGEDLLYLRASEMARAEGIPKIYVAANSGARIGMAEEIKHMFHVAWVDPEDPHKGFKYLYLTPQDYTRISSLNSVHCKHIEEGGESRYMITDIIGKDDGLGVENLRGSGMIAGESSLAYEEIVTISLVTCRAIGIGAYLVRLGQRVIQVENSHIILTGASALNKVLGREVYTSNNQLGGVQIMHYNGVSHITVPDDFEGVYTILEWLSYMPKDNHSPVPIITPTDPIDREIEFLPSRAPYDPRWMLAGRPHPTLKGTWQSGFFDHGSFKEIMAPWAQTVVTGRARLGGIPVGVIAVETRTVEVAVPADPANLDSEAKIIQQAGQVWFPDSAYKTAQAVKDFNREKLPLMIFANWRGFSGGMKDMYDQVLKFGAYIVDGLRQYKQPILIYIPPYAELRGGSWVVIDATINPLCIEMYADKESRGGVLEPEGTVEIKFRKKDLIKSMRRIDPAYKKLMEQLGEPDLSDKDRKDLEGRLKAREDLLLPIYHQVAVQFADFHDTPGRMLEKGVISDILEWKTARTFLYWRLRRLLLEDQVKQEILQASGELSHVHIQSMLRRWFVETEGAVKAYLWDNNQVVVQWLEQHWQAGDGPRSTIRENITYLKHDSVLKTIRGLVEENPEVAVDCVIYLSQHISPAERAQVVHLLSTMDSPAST

Structure (SMILES)	IC50 [nM]
CC(=O)N[C@@H](C)c1ccc(C2CCN(c3ccc(OC4CCCC4)cc3)CC2)cc1 [Example 1.2]	50
CCOc1ccc(N2CCC(c3ccc([C@H](C)NC(C)=O)cc3)CC2)cn1 [Example 1.4]	320
CCOc1ccc(N2CCC(c3ccc([C@H](C)NC(=O)OC)cc3)CC2)cc1 [Example 1.5]	350
CCC(C)Oc1ccc(N2CCC(c3ccc([C@H](C)NC(=O)N(C)C)cc3)CC2)cc1 (some centres unmarked) [Example 1.7]	140
C[C@H](NC(=O)C1CC1)c1ccc(C2CCN(c3ccc(OC4CCC4)cc3)CC2)cc1 [Example 1.9]	50
CCC(C)Oc1ccc(N2CCC(c3ccc([C@H](C)NC(=O)C4CC4)cc3)CC2)cc1 (some centres unmarked) [Example 1.10]	220
CCOc1cc(N2CCC(c3ccc([C@H](C)NC(=O)OC)cc3)CC2)ccn1 [Example 1.11]	300
COC(=O)N[C@@H](C)c1ccc(C2CCN(c3ccc(OC4CCC4)cc3)CC2)cc1 [Example 1.12]	80
C[C@H](NC(=O)C1CC1)c1ccc(C2CCN(c3ccc(OC4CC4)cc3)CC2)cc1 [Example 1.14]	100
CCC(C)Oc1ccc(N2CCC(c3ccc([C@H](C)NC(=O)OC)cc3)CC2)cc1 (some centres unmarked) [Example 1.15]	240
C[C@H](NC(=O)C1CC1)c1ccc(C2CCN(c3ccc(OCC4CC4)cc3)CC2)cc1 [Example 1.16]	90
COC(=O)N[C@@H](C)c1ccc(C2CCN(c3ccc4c(c3)OCCO4)CC2)cc1 [Example 1.17]	450
C[C@H](NC(=O)C1CC1)c1ccc(C2CCN(c3ccc4c(c3)OCCO4)CC2)cc1 [Example 1.19]	260
CCOc1cc(N2CCC(c3ccc([C@H](C)NC(=O)C4CC4)cc3)CC2)ccn1 [Example 1.20]	290
C[C@H](NC(=O)N(C)C)c1ccc(C2CCN(c3ccc(OC4CCC4)cc3)CC2)cc1 [Example 1.21]	80
COC(=O)N[C@@H](C)c1ccc(C2CCN(c3ccc(OCC4CC4)cc3)CC2)cc1 [Example 1.22]	140
CCCOc1ccc(N2CCC(c3ccc([C@H](C)NC(=O)C4CC4)cc3)CC2)cc1 [Example 1.23]	50
C[C@H](NC(=O)N(C)C)c1ccc(C2CCN(c3ccc(OCC4CC4)cc3)CC2)cc1 [Example 1.24]	210

Structure (SMILES)	IC50 [nM]
CCOc1ccc(N2CCC(c3ccc([C@H](C)NC(=O)C4CC4)cc3)CC2)cc1 [Example 1.25]	150
CC(=O)N[C@@H](C)c1ccc(C2CCN(c3cccc(O)c3)CC2)cc1 [Example 1.27, (S)—N-{1-(4-[1-(3-hydroxyphenyl)-piperidin-4-yl]-phenyl}-ethyl)-acetamide]	5800
CCC(C)Oc1ccc(N2CCC(c3ccc([C@H](C)NC(C)=O)cc3)CC2)cc1 (some centres unmarked) [Example 1.29]	80
CC(=O)N[C@@H](C)c1ccc(C2CCN(c3ccc4c(c3)OCCO4)CC2)cc1 [Example 1.40]	140
CC(=O)N[C@@H](C)c1ccc(C2CCN(c3ccc4c(c3)OCCCO4)CC2)cc1 [Example 1.44]	180
CC(=O)N[C@@H](C)c1ccc(C2CCN(c3ccccc3)CC2)cc1 [Example 1.45]	370
CC(=O)N[C@@H](C)c1ccc(C2CCN(c3ccc(Cl)cc3)CC2)cc1 [Example 1.46]	700
CC(=O)N[C@@H](C)c1ccc(C2CCN(c3ccc(O)cc3)CC2)cc1 [Example 1.48, (S)—N-{1-(4-[1-(4-Hydroxyphenyl)-piperidin-4-yl]-phenyl}-ethyl)-acetamide]	11300
CC(=O)N[C@@H](C)c1ccc(C2CCN(c3ccc(OC4CCC4)cc3C#N)CC2)cc1 [Example 1.51]	90
CC(=O)N[C@@H](C)c1ccc(C2CCN(c3ccc(C(C)C)cc3)CC2)cc1 [Example 1.52]	110
COc1ccc(N2CCC(c3ccc([C@H](C)NC(C)=O)cc3)CC2)cn1 [Example 1.53]	820
CC(=O)N[C@@H](C)c1ccc(C2CCN(c3ccc(OCc4ccccc4)nc3)CC2)cc1 [Example 1.54]	130
Cc1cc(OC2CC2)ccc1N1CCC(c2ccc([C@H](C)NC(=O)N(C)C)cc2)CC1 [Example 1.57]	100
C[C@H](NC(=O)N(C)C)c1ccc(C2CCN(c3ccc4c(c3)OCC(C)(C)CO4)CC2)cc1 [Example 1.58]	120
CC(=O)N[C@@H](C)c1ccc(C2CCN(c3ccc(OCC4CC4)nc3)CC2)cc1 [Example 1.59]	140
CC(=O)N[C@@H](C)c1ccc(C2CCN(c3ccc(OC(C)C)nc3)CC2)cc1 [Example 1.60]	180
CC(=O)N[C@@H](C)c1ccc(C2CCN(c3ccc4c(c3)OCC(C)(C)CO4)CC2)cc1 [Example 1.61]	210
CC(=O)N[C@@H](C)c1ccc(C2CCN(c3ccc(OC4CCC4)nc3)CC2)cc1 [Example 1.62]	200

Results, then the molecule that gave them:

IC50 [nM]	Structure (SMILES)
130	CCOc1ccc(N2CCC(c3ccc([C@H](C)NC(C)=O)cc3)CC2)cc1 [Example 1.1, (S)—N-(1-{4-[1-(4-Ethoxy-phenyl)-piperidin-4-yl]-phenyl}-ethyl)-acetamide]
90	CCCCOc1ccc(N2CCC(c3ccc([C@H](C)NC(C)=O)cc3)CC2)cc1 [Example 1.3]
120	CCCOc1ccc(N2CCC(c3ccc([C@H](C)NC(=O)N(C)C)cc3)CC2)cc1 [Example 1.8]
100	CCCOc1ccc(N2CCC(c3ccc([C@H](C)NC(=O)OC)cc3)CC2)cc1 [Example 1.13]
230	COc1ccc(N2CCC(c3ccc([C@H](C)NC(C)=O)cc3)CC2)cc1 [Example 1.30]
180	CCCOc1ccc(N2CCC(c3ccc([C@H](C)NC(C)=O)cc3)CC2)c(OC)c1 [Example 1.31]
90	CCCOc1ccc(N2CCC(c3ccc([C@H](C)NC(C)=O)cc3)CC2)c(C)c1 [Example 1.32]
120	CCCOc1ccc(N2CCC(c3ccc([C@H](C)NC(C)=O)cc3)CC2)c(Cl)c1 [Example 1.33]
260	COc1ccc(N2CCC(c3ccc([C@H](C)NC(C)=O)cc3)CC2)c(C#N)c1 [Example 1.34]
320	COc1cc(OC(C)C)ccc1N1CCC(c2ccc([C@H](C)NC(C)=O)cc2)CC1 [Example 1.35]
410	COc1cc(OCC2CC2)ccc1N1CCC(c2ccc([C@H](C)NC(C)=O)cc2)CC1 [Example 1.36]
110	COc1cc(OC2CCC2)ccc1N1CCC(c2ccc([C@H](C)NC(C)=O)cc2)CC1 [Example 1.37]
130	CCC(C)Oc1ccc(N2CCC(c3ccc([C@H](C)NC(C)=O)cc3)CC2)c(OC)c1 (some centres unmarked) [Example 1.39]
320	COc1ccc(N2CCC(c3ccc([C@H](C)NC(C)=O)cc3)CC2)c(OC)c1 [Example 1.41]
630	CCOc1ccc(N2CCC(c3ccc([C@H](C)NC(C)=O)cc3)CC2)c(OCC)c1 [Example 1.42]
4100	COc1ccc(N2CCC(c3ccc([C@H](C)NC(C)=O)cc3)CC2)cc1OC [Example 1.43]
2900	CCOc1ccc(N2CCC(c3ccc([C@H](C)NC(C)=O)cc3)CC2)cc1OCC [Example 1.47]
120	CC(=O)N[C@@H](C)c1ccc(C2CCN(c3ccc(OC(C)C)cc3C#N)CC2)cc1 [Example 1.50]
240	CCCOc1ccc(N2CCC(c3ccc([C@H](C)NC(C)=O)cc3)CC2)cn1 [Example 1.55]
720	COc1cc(C)c(N2CCC(c3ccc([C@H](C)NC(C)=O)cc3)CC2)cn1 [Example 1.56]
